Reference: ChEMBL document CHEMBL3621179, “Styrylphenylphthalimides as Novel Transrepression-Selective Liver X Receptor (LXR) Modulators” (ACS Med Chem Lett, 2015)
Calls of active or inactive are those of the source. The rule behind the calls is not given here.

Tests used:
[1] = target: T1, Oxysterols receptor LXR-beta (Homo sapiens, UniProt P55055); experiment: Antagonist activity at human LXR-beta transfected in HEK293 cells after 16 hrs by luciferase reporter gene assay in presence of 0.1 uM N-(4-(1,1,1,3,3,3-hexafluoro-2-hydroxypropan-2-yl)phenyl)-N-(2,2,2-trifluoroethyl)benzenesulfonamide; assay type: cell-based
T1 sequence (P55055 whole entry): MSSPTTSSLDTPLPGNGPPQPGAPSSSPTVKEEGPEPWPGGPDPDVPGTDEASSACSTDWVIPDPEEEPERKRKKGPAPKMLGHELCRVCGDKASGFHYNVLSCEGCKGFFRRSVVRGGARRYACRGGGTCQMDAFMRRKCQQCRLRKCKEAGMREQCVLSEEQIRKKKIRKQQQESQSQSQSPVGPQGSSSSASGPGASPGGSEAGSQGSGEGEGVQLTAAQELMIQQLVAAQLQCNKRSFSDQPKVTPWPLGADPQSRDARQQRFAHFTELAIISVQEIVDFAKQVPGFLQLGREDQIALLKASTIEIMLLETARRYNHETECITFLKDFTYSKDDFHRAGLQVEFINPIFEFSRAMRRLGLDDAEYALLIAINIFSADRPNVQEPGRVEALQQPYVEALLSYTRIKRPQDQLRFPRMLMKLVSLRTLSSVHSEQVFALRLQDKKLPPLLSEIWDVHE

[2] = target: Oxysterols receptor LXR-alpha (Homo sapiens, UniProt Q13133); experiment: Antagonist activity at human LXR-alpha transfected in HEK293 cells after 16 hrs by luciferase reporter gene assay in presence of 0.3 uM N-(4-(1,1,1,3,3,3-hexafluoro-2-hydroxypropan-2-yl)phenyl)-N-(2,2,2-trifluoroethyl)benzenesulfonamide; assay type: cell-based
Sequence of Oxysterols receptor LXR-alpha (Q13133 whole entry, the tested form may be a part): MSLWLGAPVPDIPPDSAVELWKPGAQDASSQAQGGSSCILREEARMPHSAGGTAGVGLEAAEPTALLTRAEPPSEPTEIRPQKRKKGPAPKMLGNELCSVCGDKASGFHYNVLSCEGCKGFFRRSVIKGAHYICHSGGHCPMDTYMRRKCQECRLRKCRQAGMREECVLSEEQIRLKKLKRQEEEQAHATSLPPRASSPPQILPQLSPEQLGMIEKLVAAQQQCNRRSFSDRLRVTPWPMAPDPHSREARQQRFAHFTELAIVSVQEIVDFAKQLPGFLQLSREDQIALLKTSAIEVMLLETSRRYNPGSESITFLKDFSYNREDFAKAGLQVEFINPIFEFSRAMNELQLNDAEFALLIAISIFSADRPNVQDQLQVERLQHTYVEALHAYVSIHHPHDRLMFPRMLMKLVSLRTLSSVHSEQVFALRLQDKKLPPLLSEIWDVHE

[3] = target: T1, Oxysterols receptor LXR-beta; experiment: Binding affinity to LXR-beta ligand binding domain (unknown origin) by TR-FRET assay in presence of 0.1 uM agonist N-(4-(1,1,1,3,3,3-hexafluoro-2-hydroxypropan-2-yl)phenyl)-N-(2,2,2-trifluoroethyl)benzenesulfonamide
THP-1 [4] = experiment: Effect on ABCA1 gene expression in human THP1 cells at 10 uM by RT-PCR analysis; assay type: functional, cell-based
THP-1 [5] = experiment: Inhibition of LPS-induced IL-6 production in human THP1 cells transfected with LXR-beta CRISPR/Cas9 knockout plasmid at 5 uM after 18 hrs by ELISA; assay type: functional, cell-based
[6] = target: T2, Peroxisome proliferator-activated receptor alpha (Homo sapiens) (UniProt Q07869); experiment: Agonist activity at PPAR-alpha (unknown origin) by luciferase reporter gene assay
T2 sequence (whole entry): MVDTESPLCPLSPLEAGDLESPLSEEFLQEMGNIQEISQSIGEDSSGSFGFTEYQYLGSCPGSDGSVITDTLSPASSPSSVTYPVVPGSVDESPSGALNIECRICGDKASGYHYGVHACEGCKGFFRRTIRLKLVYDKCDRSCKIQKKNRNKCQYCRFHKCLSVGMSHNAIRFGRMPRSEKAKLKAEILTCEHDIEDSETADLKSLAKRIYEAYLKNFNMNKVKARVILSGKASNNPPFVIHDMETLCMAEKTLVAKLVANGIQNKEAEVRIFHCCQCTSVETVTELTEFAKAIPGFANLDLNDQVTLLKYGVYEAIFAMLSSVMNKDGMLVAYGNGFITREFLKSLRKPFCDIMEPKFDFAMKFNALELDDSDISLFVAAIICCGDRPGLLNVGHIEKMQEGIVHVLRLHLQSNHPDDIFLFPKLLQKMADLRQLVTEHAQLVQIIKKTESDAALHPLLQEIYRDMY

THP-1 [7] = experiment: Effect on SREBP-1c gene expression in human THP1 cells at 10 uM by RT-PCR analysis; assay type: functional, cell-based
[8] = target: T3, Peroxisome proliferator-activated receptor delta (Homo sapiens) (UniProt Q03181); experiment: Agonist activity at PPAR-delta (unknown origin) by luciferase reporter gene assay
T3 sequence (whole entry): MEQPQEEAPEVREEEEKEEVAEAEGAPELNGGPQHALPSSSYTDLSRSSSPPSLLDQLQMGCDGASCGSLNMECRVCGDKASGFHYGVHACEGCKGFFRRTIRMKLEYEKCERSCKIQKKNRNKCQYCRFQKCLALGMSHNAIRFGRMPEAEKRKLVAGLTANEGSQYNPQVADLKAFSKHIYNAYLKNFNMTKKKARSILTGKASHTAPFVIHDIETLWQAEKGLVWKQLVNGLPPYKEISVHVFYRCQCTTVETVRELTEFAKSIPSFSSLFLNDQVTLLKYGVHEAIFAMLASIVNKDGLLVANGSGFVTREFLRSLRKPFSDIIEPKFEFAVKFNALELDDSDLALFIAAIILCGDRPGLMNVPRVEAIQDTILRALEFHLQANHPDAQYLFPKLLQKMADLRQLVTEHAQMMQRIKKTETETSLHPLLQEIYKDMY

[9] = target: T4, Peroxisome proliferator-activated receptor gamma (Homo sapiens) (UniProt P37231); experiment: Agonist activity at PPAR-gamma (unknown origin) by luciferase reporter gene assay
T4 sequence (whole entry): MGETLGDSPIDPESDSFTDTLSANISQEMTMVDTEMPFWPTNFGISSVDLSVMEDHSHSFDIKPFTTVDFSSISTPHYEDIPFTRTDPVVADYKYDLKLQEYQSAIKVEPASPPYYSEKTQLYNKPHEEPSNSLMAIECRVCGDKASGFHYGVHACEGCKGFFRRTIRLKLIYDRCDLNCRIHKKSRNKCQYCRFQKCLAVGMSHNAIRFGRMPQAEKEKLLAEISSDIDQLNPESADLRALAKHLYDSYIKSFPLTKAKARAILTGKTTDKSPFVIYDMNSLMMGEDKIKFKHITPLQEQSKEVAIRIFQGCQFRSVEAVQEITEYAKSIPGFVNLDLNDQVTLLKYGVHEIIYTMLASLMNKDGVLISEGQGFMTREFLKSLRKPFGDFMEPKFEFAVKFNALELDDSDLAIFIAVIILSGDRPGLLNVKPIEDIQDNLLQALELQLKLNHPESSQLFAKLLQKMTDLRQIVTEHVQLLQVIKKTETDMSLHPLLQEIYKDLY

IC50 [1] | IC50 [2] | IC50 [3] | inhibition [6] | inhibition [8] | inhibition [9] | SMILES | Activity (THP-1 [4]) | inhibition (THP-1 [5]) | Activity (THP-1 [7])
21 µM | 17 µM |  |  |  |  | COc1ccc(/C=C\c2ccccc2N2C(=O)c3ccccc3C2=O)cc1OC |  |  | 
4.3 µM | 3.3 µM | 1.8 µM | Active | Active | Active | COc1ccc(/C=C/c2ccccc2N2C(=O)c3ccccc3C2=O)cc1OC | inactive | inactive | inactive
